Results taken from patent US20080085915A1, “COMPOUNDS AND METHODS FOR THE TREATMENT OF GASTROINTESTINAL AND CENTRAL NERVOUS SYSTEM DISORDERS” (priority 2006, published 2008).

Experiments:
[1] = in vivo; cited from earlier work
[2] = between July 1993 and December 1999; cited from earlier work
5-HT4 receptor = molecular target: T1, 5-HT4 receptor (Cavia porcellus, UniProt O70528); assay: 5-HT4 Receptor Binding - Guinea Pig Striatum; conditions: radioligand [3H]GR113808 (0.70 nM)
T1 construct: from tissue; host or cells: guinea pig striatum
Description: The 5-HT4 receptor is known to be the major receptor subtype involved in the prokinetic activity of cisapride in the gut.

[3] = molecular target: T2, human IKr (hERG K+ channels) (Homo sapiens, UniProt Q12809); assay: Inhibition of IKr activity, whole cell patch-clamp in HEK-293 cells expressing hERG K+ channels; assay type: cell-based; conditions: data normalized to % control tail IKr
T2 construct: expressed in transfected cells; host or cells: HEK-293
Protocol: The rapidly activating delayed rectifier potassium (K+) current in humans (human IKr) is a K+ channel that is encoded by the human-ether-a-go-go-related gene (hERG). Cisapride is known to produce QT interval prolongations via a blockade of IKr, and it was therefore of interest to determine whether compounds of the invention have important inhibitory effects on human IKr. The test system was mammalian HEK-293 cells expressing the hERG K+ channels, in which the potassium current was measured by whole cell patch-clamp technique.

T1 sequence (O70528 whole entry): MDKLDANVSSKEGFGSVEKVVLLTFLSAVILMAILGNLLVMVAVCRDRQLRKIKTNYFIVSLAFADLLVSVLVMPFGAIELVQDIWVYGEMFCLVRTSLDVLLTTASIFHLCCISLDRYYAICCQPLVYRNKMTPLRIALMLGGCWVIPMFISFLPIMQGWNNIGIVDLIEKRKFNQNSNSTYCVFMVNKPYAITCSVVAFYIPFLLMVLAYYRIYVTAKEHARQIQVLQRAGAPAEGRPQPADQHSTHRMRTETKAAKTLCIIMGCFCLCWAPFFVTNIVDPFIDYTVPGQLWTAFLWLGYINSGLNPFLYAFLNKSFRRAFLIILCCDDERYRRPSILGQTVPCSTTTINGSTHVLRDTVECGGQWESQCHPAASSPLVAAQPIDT
T2 sequence (Q12809 whole entry): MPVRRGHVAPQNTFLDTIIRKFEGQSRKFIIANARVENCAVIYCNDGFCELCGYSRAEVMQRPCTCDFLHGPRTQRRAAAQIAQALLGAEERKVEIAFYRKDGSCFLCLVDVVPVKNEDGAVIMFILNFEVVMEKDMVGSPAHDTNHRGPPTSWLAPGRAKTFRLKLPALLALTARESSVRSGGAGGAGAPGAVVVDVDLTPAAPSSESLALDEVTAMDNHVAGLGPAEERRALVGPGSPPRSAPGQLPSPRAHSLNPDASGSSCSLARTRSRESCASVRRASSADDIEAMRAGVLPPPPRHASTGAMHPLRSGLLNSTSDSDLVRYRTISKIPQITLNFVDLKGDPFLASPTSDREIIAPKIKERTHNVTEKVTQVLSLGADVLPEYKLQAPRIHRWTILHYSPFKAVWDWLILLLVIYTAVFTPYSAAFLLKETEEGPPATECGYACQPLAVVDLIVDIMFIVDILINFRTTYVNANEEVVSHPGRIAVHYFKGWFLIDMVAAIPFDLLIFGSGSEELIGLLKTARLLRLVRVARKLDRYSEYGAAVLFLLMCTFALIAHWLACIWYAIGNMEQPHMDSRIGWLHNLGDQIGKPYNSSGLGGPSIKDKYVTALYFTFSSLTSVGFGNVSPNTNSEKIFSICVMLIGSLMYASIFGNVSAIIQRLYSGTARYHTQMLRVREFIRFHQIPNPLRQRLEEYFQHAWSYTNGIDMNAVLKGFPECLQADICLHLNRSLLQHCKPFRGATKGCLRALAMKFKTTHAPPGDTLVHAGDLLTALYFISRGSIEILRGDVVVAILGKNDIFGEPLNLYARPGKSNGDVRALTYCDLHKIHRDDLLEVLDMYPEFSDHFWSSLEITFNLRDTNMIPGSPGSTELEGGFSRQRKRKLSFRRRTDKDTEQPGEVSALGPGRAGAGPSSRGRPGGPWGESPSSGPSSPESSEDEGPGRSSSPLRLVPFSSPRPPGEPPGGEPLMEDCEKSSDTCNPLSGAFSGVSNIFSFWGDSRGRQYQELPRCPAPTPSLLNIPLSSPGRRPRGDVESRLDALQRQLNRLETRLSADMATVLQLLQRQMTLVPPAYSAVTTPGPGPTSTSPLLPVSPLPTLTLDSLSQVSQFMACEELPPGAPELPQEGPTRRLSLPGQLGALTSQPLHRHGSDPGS

Structure (SMILES)	Ki (5-HT4 receptor)	IC50 [3]	also measured
COc1cc(N)c(Cl)cc1C(=O)NC1CCN(CCCOc2ccc(F)cc2)CC1OC (stereo not shown) [cisapride]	–	–	part of dose metabolized by oxidative N-dealkylation or aromatic hydroxylation [1]: More than 90%; deaths reported [2]: 80; serious cardiac arrhythmias reportedly associated [2]: at least 341
COc1cc(N)c(Cl)cc1C(=O)N[C@@H]1CCN(CC(=O)Nc2ccc(CC(=O)OCCCO)cc2)C[C@@H]1OC [Compound 48, 3-hydroxypropyl 2-(4-(2-((3S,4R)-4-(4-amino-5-chloro-2-methoxybenzamido)-3-methoxypiperidin-1-yl)acetamido)phenyl)acetate]	< 50 nM	10000 to 25000 nM	–
COc1cc(N)c(Cl)cc1C(=O)N[C@@H]1CCN(CC(=O)Nc2ccc(CC(=O)OC3CCN(C)CC3)cc2)C[C@@H]1OC [Compound 47, 1-methylpiperidin-4-yl 2-(4-(2-((3S,4R)-4-(4-amino-5-chloro-2-methoxybenzamido)-3-methoxypiperidin-1-yl)acetamido)phenyl)acetate]	< 50 nM	> 25000 nM	–
COc1cc(N)c(Cl)cc1C(=O)N[C@@H]1CCN(CCNCc2ccc(C(=O)OC3CCNCC3)cc2)C[C@@H]1OC [Compound 25, piperidin-4-yl 4-((2-((3S,4R)-4-(4-amino-5-chloro-2-methoxybenzamido)-3-methoxypiperidin-1-yl)ethylamino)methyl)benzoate]	< 50 nM	> 25000 nM	–
COc1cc(N)c(Cl)cc1C(=O)N[C@@H]1CCN(CCN(C)Cc2ccc(C(=O)OC3CCN(C)CC3)cc2)C[C@@H]1OC [Compound 11, 1-methylpiperidin-4-yl 4-(((2-((3S,4R)-4-(4-amino-5-chloro-2-methoxybenzamido)-3-methoxypiperidin-1-yl)ethyl)(methyl)amino)methyl)benzoate]	< 50 nM	–	–
COc1cc(N)c(Cl)cc1C(=O)N[C@@H]1CCN(CC(=O)Nc2ccc(OC(C)=O)cc2)C[C@@H]1OC [Compound 60, 4-(2-((3S,4R)-4-(4-amino-5-chloro-2-methoxybenzamido)-3-methoxypiperidin-1-yl)acetamido)phenyl acetate]	< 50 nM	–	–
COc1cc(N)c(Cl)cc1C(=O)N[C@@H]1CCN(CCCc2ccc(C(=O)OCCN3CCCC3)cc2)C[C@@H]1OC [Compound 68, 2-(pyrrolidin-1-yl)ethyl 4-(3-((3S,4R)-4-(4-amino-5-chloro-2-methoxybenzamido)-3-methoxypiperidin-1-yl)propyl)benzoate]	< 50 nM	–	–
COc1cc(N)c(Cl)cc1C(=O)N[C@@H]1CCN(CCNC(=O)c2ccc(C(=O)O)cc2)C[C@@H]1OC [Compound 33, 4-(2-((3S,4R)-4-(4-amino-5-chloro-2-methoxybenzamido)-3-methoxypiperidin-1-yl)ethylcarbamoyl)benzoic acid]	> 500 nM	> 25000 nM	–
COc1cc(N)c(Cl)cc1C(=O)N[C@@H]1CCN(CCN(C)Cc2ccc(C(=O)OCCN3CCOCC3)cc2)C[C@@H]1OC [Compound 12, 2-morpholinoethyl 4-(((2-((3S,4R)-4-(4-amino-5-chloro-2-methoxybenzamido)-3-methoxypiperidin-1-yl)ethyl)(methyl)amino)methyl)benzoate]	50 to 500 nM	–	–
COc1cc(N)c(Cl)cc1C(=O)N[C@@H]1CCN(CC(=O)Nc2ccc(CC(=O)O)cc2)C[C@@H]1OC [Compound 45, 2-(4-(2-((3S,4R)-4-(4-amino-5-chloro-2-methoxybenzamido)-3-methoxypiperidin-1-yl)acetamido)phenyl)acetic acid]	> 500 nM	> 25000 nM	–
COc1cc(N)c(Cl)cc1C(=O)N[C@@H]1CCN(CCNC(=O)c2ccc(C(=O)OC3CCNCC3)cc2)C[C@@H]1OC [Compound 34, piperidin-4-yl 4-(2-((3S,4R)-4-(4-amino-5-chloro-2-methoxybenzamido)-3-methoxypiperidin-1-yl)ethylcarbamoyl)benzoate]	< 50 nM	–	–
COc1cc(N)c(Cl)cc1C(=O)N[C@@H]1CCN(CC(=O)Nc2ccc(C(=O)OCCO)cc2)C[C@@H]1OC [Compound 93, 2-hydroxyethyl 4-(2-((3S,4R)-4-(4-amino-5-chloro-2-methoxybenzamido)-3-methoxypiperidin-1-yl)acetamido)benzoate]	< 50 nM	> 25000 nM	–
COc1cc(N)c(Cl)cc1C(=O)N[C@@H]1CCN(CCNCc2ccc(C(=O)OCCCO)cc2)C[C@@H]1OC [Compound 24, 3-hydroxypropyl 4-((2-((3S,4R)-4-(4-amino-5-chloro-2-methoxybenzamido)-3-methoxypiperidin-1-yl)ethylamino)methyl)benzoate]	50 to 500 nM	–	–
COc1cc(N)c(Cl)cc1C(=O)N[C@@H]1CCN(CC(=O)Nc2ccc(O)cc2)C[C@@H]1OC [Compound 59, 4-amino-5-chloro-N-((3S,4R)-1-(2-(4-hydroxyphenylamino)-2-oxoethyl)-3-methoxypiperidin-4-yl)-2-methoxybenzamide]	< 50 nM	–	–
CCOC(=O)Cc1ccc(NC(=O)CN2CC[C@@H](NC(=O)c3cc(Cl)c(N)cc3OC)[C@@H](OC)C2)cc1 [Compound 46, ethyl 2-(4-(2-((3S,4R)-4-(4-amino-5-chloro-2-methoxybenzamido)-3-methoxypiperidin-1-yl)acetamido)phenyl)acetate]	< 50 nM	–	–
COc1cc(N)c(Cl)cc1C(=O)N[C@@H]1CCN(CCCc2ccc(C(=O)OC3CCN(C)CC3)cc2)C[C@@H]1OC [Compound 69, 1-methylpiperidin-4-yl 4-(3-((3S,4R)-4-(4-amino-5-chloro-2-methoxybenzamido)-3-methoxypiperidin-1-yl)propyl)benzoate]	< 50 nM	–	–
COc1cc(N)c(Cl)cc1C(=O)N[C@@H]1CCN(CC(=O)Nc2ccc(CC(=O)OC3CN4CCC3CC4)cc2)C[C@@H]1OC (stereo partly drawn) [Compound 49, quinuclidin-3-yl 2-(4-(2-((3S,4R)-4-(4-amino-5-chloro-2-methoxybenzamido)-3-methoxypiperidin-1-yl)acetamido)phenyl)acetate]	< 50 nM	–	–
COc1cc(N)c(Cl)cc1C(=O)N[C@@H]1CCN(CCCc2ccc(C(=O)OCCN3CCOCC3)cc2)C[C@@H]1OC [Compound 67, 2-morpholinoethyl 4-(3-((3S,4R)-4-(4-amino-5-chloro-2-methoxybenzamido)-3-methoxypiperidin-1-yl)propyl)benzoate]	< 50 nM	–	–
COc1cc(N)c(Cl)cc1C(=O)N[C@@H]1CCN(CC(=O)Nc2ccc(C(=O)OCCN3CCNCC3)cc2)C[C@@H]1OC [Compound 95, 2-(piperazin-1-yl)ethyl 4-(2-((3S,4R)-4-(4-amino-5-chloro-2-methoxybenzamido)-3-methoxypiperidin-1-yl)acetamido)benzoate]	< 50 nM	–	–
COc1cc(N)c(Cl)cc1C(=O)N[C@@H]1CCN(CCN(C)Cc2ccc(C(=O)OCCN3CCCC3)cc2)C[C@@H]1OC [Compound 10, 2-(pyrrolidin-1-yl)ethyl 4-(((2-((3S,4R)-4-(4-amino-5-chloro-2-methoxybenzamido)-3-methoxypiperidin-1-yl)ethyl)(methyl)amino)methyl)benzoate]	< 50 nM	> 25000 nM	–
COc1cc(N)c(Cl)cc1C(=O)N[C@@H]1CCN(CCNCc2ccc(C(=O)O)cc2)C[C@@H]1OC [Compound 23, 4-((2-((3S,4R)-4-(4-amino-5-chloro-2-methoxybenzamido)-3-methoxypiperidin-1-yl)ethylamino)methyl)benzoic acid]	> 500 nM	–	–
COc1cc(N)c(Cl)cc1C(=O)N[C@@H]1CCN(CC(=O)Nc2ccc(C(=O)OCC(N)=O)cc2)C[C@@H]1OC [Compound 94, 2-amino-2-oxoethyl 4-(2-((3S,4R)-4-(4-amino-5-chloro-2-methoxybenzamido)-3-methoxypiperidin-1-yl)acetamido)benzoate]	< 50 nM	5000 to 10000 nM	–
COc1cc(N)c(Cl)cc1C(=O)N[C@@H]1CCN(CCCc2ccc(C(=O)O)cc2)C[C@@H]1OC [Compound 66, 4-(3-((3S,4R)-4-(4-amino-5-chloro-2-methoxybenzamido)-3-methoxypiperidin-1-yl)propyl)benzoic acid]	> 500 nM	> 25000 nM	–
